From patent publication EP0951284B1, “[…] DERIVATIVES” (priority 1996, dated 1998)
Where a name gives a salt, the structure may show the parent alone. Read-outs that look alike come from different tables or passages of the source.

Key:
MAO-A [1] = assay: Inhibition of MAO activity ex vivo (brain tissue), 5-HT substrate; format: in vivo, mice; details: mouse brain tissue
Experimental: (§1) Male Sabra mice, weighing 45-50g were injected with test compound solutions (prepared in 0.9% saline). Each dose was administered to two or three mice. The mice were sacrificed two hours after drug administration or at a time corresponding to the peak AChE inhibition time (see Table 6). The brain and liver were rapidly dissected and stored in appropriate vials on ice. The tissues were weighed, diluted to 1/20 in sucrose 0.3M and stored at -20°C before performance of the MAO assay described above. The results given in Table 6 relate to measurements made on brain tissue only.

mice = assay: Survival time of mice in hypobaric hypoxic episode; format: in vivo
Excerpt: The model is based on that described in Nakanishi, M. et al. Life Sci. (1973) 13: 467; Oshiro, et al., J. Med. Chem. (1991) 34: 2004-2013; and US Patent 4,788,130.
A 12 liter desiccator (desiccator A) and a 2.5 liter desiccator (desiccator B) were separately connected to a vacuum pump. Desiccator B was disconnected and allowed to equilibrate with room air whilst desiccator A was evacuated to a pressure of 100mmHg. Four male ICR albino mice (22-28g) were placed in desiccator B. Desiccator B was then closed to room air and connected to desiccator A. The pressure inside desiccator B was monitored using a mercury manometer and at the point the pressure in desiccator B reached 200mmHg (usually within 14 seconds), the two desiccators were disconnected from the vacuum pump and the pump switched off. The survival time from the moment of induction of hypoxia to the time of cessation of respiration was recorded. for each mouse for a maximum of 15 minutes after which time room air was reintroduced to desiccator B. Survivors were monitored for signs of lethargy or vitality.
Effect of drug treatment was assessed as the percent of the survival time of the drug treated group with respect to the saline injected or vehicle injected control group. Control groups were run twice, before and after each experimental group and consisted of 8 mice in groups of 4 mice to ensure a constant residual volume of oxygen in all tests. The effect of each dose of test drug was determined in duplicate i.e. two groups of 4 mice.
Positive reference drugs were sodium pentobarbital at a dose of 40 mg/kg, and diazepam 10 mg/kg given 0.5h prior to hypoxia, physostigmine 0.2 and 0.4 mg/kg and neostigmine 0.2 mg/kg given sc 30 min before hypoxia. Methyl atropine 1 mg/kg was given sc. 10 min. before physostigmine.
The volume of injection was 0.2-0.3 mL per mouse (10 mL/kg). The initial dose was about one third of the reported LD50 for acetylcholine esterase inhibition. If no protection could be obtained, the dose was further increased to the nearest non-toxic dose. In case of protection, the dose was further reduced in an attempt to locate the "protective" dose range.

[2] = molecular target: T1, Human erythrocyte acetylcholinesterase (Homo sapiens, UniProt P22303); assay: In vitro measurement of acetylcholinesterase (AChE) inhibition (Ellman method); format: biochemical; details: at time of peak activity, incubation 15 to 60 minutes at 37°C
T1 construct: Human erythrocyte acetylcholinesterase (type XIII, Sigma Israel); purchased Sigma Israel type XIII; host or cells: human erythrocytes
T1 sequence (P22303 32-617 isoform P22303-2 limits assumed): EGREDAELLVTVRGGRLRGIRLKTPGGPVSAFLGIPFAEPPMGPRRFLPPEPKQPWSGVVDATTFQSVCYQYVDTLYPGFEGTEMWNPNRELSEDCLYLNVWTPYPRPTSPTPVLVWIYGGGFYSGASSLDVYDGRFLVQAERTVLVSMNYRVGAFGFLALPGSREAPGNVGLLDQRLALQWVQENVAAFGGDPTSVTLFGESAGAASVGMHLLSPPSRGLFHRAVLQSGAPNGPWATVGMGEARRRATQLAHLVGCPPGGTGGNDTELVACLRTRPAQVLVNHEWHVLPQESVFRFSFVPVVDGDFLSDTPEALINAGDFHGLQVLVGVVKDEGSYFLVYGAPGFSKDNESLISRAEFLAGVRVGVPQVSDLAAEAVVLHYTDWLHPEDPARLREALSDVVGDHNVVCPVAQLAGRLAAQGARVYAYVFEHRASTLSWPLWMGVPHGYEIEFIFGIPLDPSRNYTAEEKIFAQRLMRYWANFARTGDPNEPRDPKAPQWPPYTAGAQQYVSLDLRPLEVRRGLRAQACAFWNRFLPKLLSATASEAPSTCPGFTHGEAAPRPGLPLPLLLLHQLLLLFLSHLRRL
Experimental: Human erythrocyte acetylcholinesterase (type XIII, Sigma Israel), was prepared in a stock solution of 1U/ml, containing Triton (1%) and bovine serum albumin (0.05%) in phosphate buffer (pH 8). The enzyme (0.05U) was incubated with 3-5 different concentrations of test compound (in triplicate) for periods of from 15 to 60 minutes at 37°C. […] The percentage inhibition of AChE by each concentration of drug is calculated by comparison with that of enzyme in the absence of drug.

whole brain AChE = molecular target: T2, whole brain AChE (Mus musculus, UniProt P21836); assay: Ex vivo measurement of brain AChE inhibition after sub-cutaneous administration; format: in vivo, mice; details: for ED50: sc, sub-cutaneous, mouse whole brain, at peak of activity, read-out: AChE Inhibition Ex vivo ED50 (AC)
T2 construct: the brains rapidly removed (minus cerebellum), weighed and homogenized in 0.1M phosphate buffer pH 8.0; from tissue; host or cells: mouse brain (minus cerebellum) homogenate supernatant
T2 sequence (P21836 32-614): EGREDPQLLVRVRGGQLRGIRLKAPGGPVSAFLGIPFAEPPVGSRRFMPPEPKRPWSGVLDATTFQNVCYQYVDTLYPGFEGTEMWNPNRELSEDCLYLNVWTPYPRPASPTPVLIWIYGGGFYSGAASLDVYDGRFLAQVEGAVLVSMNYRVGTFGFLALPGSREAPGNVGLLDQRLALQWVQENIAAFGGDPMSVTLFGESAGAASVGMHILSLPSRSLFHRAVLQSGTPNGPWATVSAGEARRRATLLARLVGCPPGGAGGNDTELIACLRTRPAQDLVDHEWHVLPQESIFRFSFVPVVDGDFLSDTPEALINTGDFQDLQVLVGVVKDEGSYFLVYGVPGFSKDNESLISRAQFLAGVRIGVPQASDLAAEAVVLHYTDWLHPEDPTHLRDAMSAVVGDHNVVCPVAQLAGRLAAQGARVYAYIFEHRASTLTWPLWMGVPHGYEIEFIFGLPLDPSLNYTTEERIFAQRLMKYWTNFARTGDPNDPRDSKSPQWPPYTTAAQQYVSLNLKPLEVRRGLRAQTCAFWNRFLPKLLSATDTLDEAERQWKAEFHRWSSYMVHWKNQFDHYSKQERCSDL
Experimental: Test drugs or saline were administered sub-cutaneously to male mice (Sabra strain, 28-35g). At least 4-5 mice were used per dose and a minimum of 3 doses per drug were tested. The mice were sacrificed 15, 30, 60, 70, 90, 120 or 180 minutes after drug administration, the brains rapidly removed (minus cerebellum), weighed and homogenized in 0.1M phosphate buffer pH 8.0, containing Triton (1mg/100g tissue) and centrifuged to remove cell debris. Aliquots (25 µl) of the supernatant were then incubated with acetylthiocholine and DTNB. AChE activity measured as described above. The % inhibition of whole brain AChE by each dose of drug was calculated by comparison with enzyme activity from 3 saline treated control mice run at the same time.

MAO-B = assay: Inhibition of MAO activity ex vivo (brain tissue), PEA substrate; format: in vivo, mice; details: mouse brain tissue
Experimental: as §1

MAO-A [3] = molecular target: T3, MAO-A (Rattus norvegicus, UniProt P21396); assay: Inhibition of MAO activity in vitro, rat brain homogenate, 5-HT substrate
T3 sequence (P21396 1-526): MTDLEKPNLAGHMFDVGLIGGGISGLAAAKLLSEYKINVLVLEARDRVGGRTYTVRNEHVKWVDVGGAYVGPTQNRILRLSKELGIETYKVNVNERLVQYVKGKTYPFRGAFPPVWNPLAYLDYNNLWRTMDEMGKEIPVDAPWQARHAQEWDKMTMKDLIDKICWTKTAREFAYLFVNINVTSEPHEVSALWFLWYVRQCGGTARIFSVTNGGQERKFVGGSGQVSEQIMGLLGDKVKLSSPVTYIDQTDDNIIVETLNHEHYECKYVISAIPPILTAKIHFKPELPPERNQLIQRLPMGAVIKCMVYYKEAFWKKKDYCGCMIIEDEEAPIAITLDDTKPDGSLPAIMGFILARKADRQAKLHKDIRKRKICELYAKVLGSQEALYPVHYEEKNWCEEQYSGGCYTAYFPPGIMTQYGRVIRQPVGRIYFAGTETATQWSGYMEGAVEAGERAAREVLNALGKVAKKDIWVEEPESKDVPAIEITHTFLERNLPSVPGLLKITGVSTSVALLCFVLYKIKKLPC
Experimental: The MAO enzyme source was a homogenate of rat brain in 0.3M sucrose, which was centrifuged at 600G for 15 minutes. The supernatant was diluted appropriately in 0.05M phosphate buffer, and pre-incubated with serial dilutions of test compounds for 20 minutes at 37°C. ^14C-Labeled substrates (2-phenylethylamine, hereinafter PEA; 5-hydroxytryptamine, hereinafter 5-HT) were then added, and the incubation continued for a further 20 minutes (PEA), or 30-45 minutes (5-HT). Substrate concentrations used were 50µM (PEA) and 1mM (5-HT). In the case of PEA, enzyme concentration was chosen so that not more than 10% of the substrate was metabolized during the course of the reaction. The deaminated products were extracted into toluene-ethyl acetate (1:1, v/v) containing 0.6% (w/v) 2,5-diphenyloxazole prior to determination by liquid scintillation counting. Radioactivity in the eluate indicates the production of neutral and acidic metabolites formed as a result of MAO activity. Activity of MAO in the sample was expressed as a percentage of control activity in the absence of inhibitors after subtraction of appropriate blank values The activity determined using PEA as substrate is referred to as MAO-B, and that determined using 5-HT as MAO-A.

[4] = Acute toxicity in mice (sub-cutaneous, lethality within 6 hours); details: mouse, in vivo, sc; for selectivity ratio: LD50 divided by ED50 (acetylcholine esterase ex vivo), read-out: Therapeutic Ratio (LD/AC); for LD50 at 6 h: sub-cutaneous, mice, within 6 hours
Experimental: Drugs were administered sub-cutaneously in at least 3 doses, to a minimum of 10 mice per dose. […] Therapeutic Ratio was calculated as LD50 divided by ED50(acetylcholine esterase ex vivo).

For `C#CCNC(C)Cc1cccc(OC(=O)N(C)CCC)c1` (racemic) [Compound 19, (rac)-3-(N-methyl,N-propyl-carbamyloxy)-α-methyl-N'-propargyl phenethylamine HCl], the “MAO-A Inhibition Ex vivo ED50” value (MAO-A [1]) was greater than 70 µmol/kg, the “Protection (% of control)” value (mice; 25 mg/kg sc, 60 min before hypoxia) was 169±50 % of control and the “Protection (% of control)” value (mice; 50 mg/kg sc, 60 min before hypoxia) was 309±253 % of control. For the same molecule, the “Protection (% of control)” value (mice; 75 mg/kg sc, 60 min before hypoxia) was 773±228 % of control, the IC50 [2] was 20 µM and the “Time to peak activity t” value (whole brain AChE; AChE inhibition) was 30 to 60 min. The ED50 (whole brain AChE) was 170 µmol/kg, the “MAO-B Inhibition Ex vivo ED50” value (MAO-B) was 1.5 µmol/kg and the IC50 (MAO-A [3]) was 14.6 µM. It also gave a selectivity ratio [4] of 7.6 and an LD50 at 6 h [4] of 1300 µmol/kg.

For `C#CCN(C)C(C)Cc1cccc(OC(=O)N(C)CCCCCC)c1` (racemic) [Compound 27, (rac)-3-(N-methyl,N-hexyl-carbamyloxy)-α-methyl-N'-methyl, N'-propargyl phenethylamine mesylate], the “MAO-A Inhibition Ex vivo ED50” value (MAO-A [1]) was greater than 430 µmol/kg, the IC50 [2] was 3.1 µM and the ED50 (whole brain AChE) was greater than 50 µmol/kg. The “MAO-B Inhibition Ex vivo ED50” value (MAO-B) was 3.4 µmol/kg, the IC50 (MAO-A [3]) was 20 µM and the LD50 at 6 h [4] was greater than 1000 µmol/kg.

In the case of `C#CCN(C)C(C)Cc1cccc(OC(=O)N(C)C2CCCCC2)c1` (racemic) [Compound 28, (rac)-3-(N-methyl,N-cyclohexyl-carbamyloxy)-α-methyl-N'-methyl, N'-propargyl phenethylamine HCl], the “MAO-A Inhibition Ex vivo ED50” value (MAO-A [1]) is reported as 109 µmol/kg, the IC50 [2] is reported as 11.5 µM and the “Time to peak activity t” value (whole brain AChE; AChE inhibition) is reported as 60 min. For the same molecule, the ED50 (whole brain AChE) was 21 µmol/kg, the “MAO-B Inhibition Ex vivo ED50” value (MAO-B) was 1.75 µmol/kg and the IC50 (MAO-A [3]) was 1.7 µM. For the same molecule, the selectivity ratio [4] was greater than 47 and the LD50 at 6 h [4] was 2000 µmol/kg.

With `C#CCN(C)C(C)Cc1cccc(OC(=O)N(C)CCC)c1` (racemic) [Compound 35] the IC50 [2] was 50 µM and the ED50 (whole brain AChE) was greater than 200 µmol/kg.

`CN(C)C(=O)Oc1cccc(CCN)c1` [Compound 1] showed an IC50 [2] of 0.31 µM and an IC50 (MAO-A [3]) of 100 µM.

In the case of `CNCCc1cccc(OC(=O)N(C)C)c1` [Compound 3], the IC50 [2] is reported as 0.31 µM, the “Time to peak activity t” value (whole brain AChE; AChE inhibition) is reported as 10 min and the “Time to return to 50% of peak t” value (whole brain AChE; AChE inhibition) is reported as 30 min. For the same molecule, the ED50 (whole brain AChE) was 39.2 µmol/kg, the IC50 (MAO-A [3]) was 50 µM and the selectivity ratio [4] was 1.5. For the same molecule, the LD50 at 6 h [4] was 57.7 µmol/kg.

In the case of `CCN(C)C(=O)Oc1cccc(CCN)c1` [Compound 4], the IC50 [2] is reported as 48.4 µM and the IC50 (MAO-A [3]) is reported as 200 µM.

With `CCN(C)C(=O)Oc1cccc(CCNC)c1` [Compound 5] the “MAO-A Inhibition Ex vivo ED50” value (MAO-A [1]) was >>160 µmoles/kg, the IC50 [2] was 20.8 µM and the “MAO-B Inhibition Ex vivo ED50” value (MAO-B) was >>160 µmoles/kg. It also gave an IC50 (MAO-A [3]) of 25 µM.

With `CN(C)CCc1cccc(OC(=O)N(C)C)c1` [Compound 10] the IC50 [2] was 0.2 µM, the “Time to peak activity t” value (whole brain AChE; AChE inhibition) was 15 to 30 min and the ED50 (whole brain AChE) was 2 µmol/kg. The IC50 (MAO-A [3]; read-out: MAO-A Inhibition In vitro IC50, rat brain homogenate, 5-HT 1mM) was 51 µM, the selectivity ratio [4] was 8 and the LD50 at 6 h [4] was 16 µmol/kg.

For `C#CC(C)NCCc1cccc(OC(=O)N(C)C)c1` (centres unmarked) [Compound 29], the “MAO-A Inhibition Ex vivo ED50” value (MAO-A [1]) was >>12.5 µmoles/kg, the IC50 [2] was 0.15 µM and the ED50 (whole brain AChE) was 2.5 µmol/kg. The “MAO-B Inhibition Ex vivo ED50” value (MAO-B) was >>12.5 µmoles/kg.

With `C#CC(C)NCCc1cccc(OC(=O)N(C)CC)c1` (centres unmarked) [Compound 30] the “MAO-A Inhibition Ex vivo ED50” value (MAO-A [1]) was >>270 µmoles/kg, the IC50 [2] was 14 µM and the ED50 (whole brain AChE) was 45 µmol/kg. The “MAO-B Inhibition Ex vivo ED50” value (MAO-B) was >>270 µmoles/kg.

For `C#CCNC(C)Cc1cccc(OC(=O)N(C)C2CCCCC2)c1` (centres unmarked) [Compound 36], the IC50 [2] was 3.4 µM and the ED50 (whole brain AChE) was greater than 50 µmol/kg.

`C#CCN(C)[C@@H](C)Cc1cccc(OC(=O)N(C)CCCCCC)c1` [Compound 38, (S)-3-(N-methyl, N-hexyl-carbamyloxy)-α-methyl-N'-methyl,N'-propargyl phenethylamine ethanesulfonate] gave an IC50 [2] of 3.1 µM and an ED50 (whole brain AChE) greater than 50 µmol/kg.

In the case of `CN1C(=O)CN=C(c2ccccc2)c2cc(Cl)ccc21` [Diazepam, diazepam, reference compound], the “Protection (% of control)” value (mice; 10 mg/kg, 30 min before hypoxia) is reported as 316±78 % of control.

For `CCCC(C)C1(CC)C(=O)NC(=O)NC1=O` (centres unmarked) [Nembutal, sodium pentobarbital, reference compound], the “Protection (% of control)” value (mice; 40 mg/kg, 30 min before hypoxia) was 253±200 % of control.
